Measured values taken from publication PMC8655235 (Journal of Advanced Research, 2020).

Target: T1, mitochondrial complex I (NADH dehydrogenase) of mites (Psoroptes ovis, UniProt A0A075XDS2)
T1 sequence (A0A075XDS2 1-300): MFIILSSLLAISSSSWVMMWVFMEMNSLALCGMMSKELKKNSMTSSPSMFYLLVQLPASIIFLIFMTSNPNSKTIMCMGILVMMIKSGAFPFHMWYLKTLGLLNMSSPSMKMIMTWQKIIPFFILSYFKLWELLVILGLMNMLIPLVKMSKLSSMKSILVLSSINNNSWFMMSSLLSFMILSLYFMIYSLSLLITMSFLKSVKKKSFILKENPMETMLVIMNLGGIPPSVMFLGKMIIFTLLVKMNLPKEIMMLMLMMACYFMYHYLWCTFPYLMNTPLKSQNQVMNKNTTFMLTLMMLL
Test: colorimetric complex I assay at […] nm, isolated mite mitochondria
Format: biochemical
Conditions: read-out: % inhibition at 20 ng/mL

C=CCc1ccc(O)c(OC)c1 [eugenol, 4-allyl-2-methoxyphenol]
inhibition at 0.02 µg/mL: 92.6%
